US8207211B2, “Photosensitizers for targeted photodynamic therapy” (The General Hospital Corporation, priority 2005, dated 2012)

Columns and labels:
[1] = tested on: P. aeruginosa; test: Photodynamic inactivation (PDI), CFU survival, 405-nm light (Example 8); format: cell-based, Pseudomonas aeruginosa
Description: (§1) Four microbial species were used in this study. Briefly, Escherichia coli was purchased from ATCC (ATCC #25922), Pseudomonas aeruginosa, two clinical isolates, were obtained; UCBP PA 14 from L. Rahme (Massachusetts General Hospital) and PA 767K from Kim Lewis (Tufts University), slime deficient mutant of Staphylococcus aureus was obtained from Gerald B Pier (Channing Laboratories). Yeast strain Candida albicans was purchased from ATCC (ATCC #18804). Exponential cultures obtained by reculturing stationary overnight cultures were used for all experiments. Bacteria were grown at 37° C. in BHI broth to a cell density of 10^8 cells per mL. C. albicans was grown 37° C. in YM medium to 10^7 cells/mL.
(§2) Six fullerene derivatives (NI1-3 and CI1-3) were evaluated. […] Concentration of fullerene derivatives used in the experiments varied between 1 and 100 μM.
(§3) Fullerene derivatives were mixed with microbial suspensions and incubated in the dark at room temperature for 10 minutes. Excess fullerenes were either washed out of, or left in, the suspensions before illumination. […]
(§4) During illumination, aliquots of 20 μL were taken to determine the colony-forming units. […] Colonies were counted and survival fraction was determined as percent of survival compared to control. […]

[2] = Octanol-water distribution coefficient; format: physicochemical; details: 1-octanol/DI water, absorbance at 330 nm
Procedure: Each compound was dissolved in a minimum amount of DMSO: CI1 (0.9 mg in 200 μl), CI2 (5.3 mg in 200 μl), CI3 (5.4 mg in 200 μl). Ten ml of DI water and 10 ml of 1-octanol were added in each compound and vigorously shaken for 2 min. and the vials of the compounds were settled down overnight. The phases were separated and UV-spectra of each phase were analyzed. Distribution coefficient of each compound was determined using absorbance of aqueous phases and organic phases at 330 nm.

[3] = tested on: L929 murine fibroblast line; test: Mammalian cell toxicity, MTT viability assay after illumination; format: cell-based, mouse
Description: Experiments to test the effect of functionalized fullerenes on mammalian cells can be performed in a suitable mammalian cell line. One such cell line is the L929 murine fibroblast line (ATCC #CCL1), a spontaneously transformed immortalized cell line established from the normal subcutaneous areolar and adipose tissue of a male C3H/An mouse (Earle, W. R., Schilling, E. L., Stark, T. H., Straus, N. P., Brown, M. F., and Shelton, E. (1943). Production of malignancy in vitro. IV. The mouse fibroblast cultures and changes seen in the living cells. J. Natl. Cancer Inst. 4, 165-212). In a suitable assay, these cells were cultured in Dulbecco's modified Eagle's medium (Sigma) at 37° C. in a humidified atmosphere containing 5% CO2. The medium is preferably modified by using 4 mM L-glutamine (containing 1.5 g/l sodium bicarbonate and 4.5 g/l glucose), 10% fetal bovine serum (FBS), 100 U/ml penicillin, and […] streptomycin. Cells were plated in 96-well cell culture plates, at a density of about 300 cells/well, and are allowed to attach for 24 hr.
Fullerenes and other PS, e.g., TBO, were added at a concentration of about 10 μM in 200 μl complete medium per well. After 10 min, fresh medium is added, and the cultures were illuminated with white light (for fullerenes) or with red light (for TBO). At the completion of the illumination period, cells were returned to the incubator for 24 hr. Cell viability can be determined, for example, by using the MTT-microculture tetrazolium assay, a method of assessing cellular response to PDT (Merlin, J. L., Azzi, S., Lignon, D., Ramacci, C., Zeghari, N., and Guillemin, F. (1992). MTT assays allow quick and reliable measurement of the response of human tumour cells to photodynamic therapy. Eur. J. Cancer 28A, 1452-1458. This assay involves the reduction of a colorless substrate, i.e., 3-[4,5-Dimethylthiazol-2-yl]-diphenyltetrazolium bromide (Sigma, St. Louis, […].) to an insoluble dark-blue formazan product which is formed in proportion to the amount of succinate dehydrogenase activity in the mitochondria of living cells. After incubation with MTT for periods ranging from 4 to 8 hr, the medium was aspirated from each well, and […] DMSO is added. The absorbance at 570 nm was read by a microplate reader, e.g., a Spectra Max™ 340 PC (Molecular Devices, Sunnyvale, Calif.). The fraction of cells surviving was calculated by dividing the mean absorbances of formazan produced from PDT-treated cells by the mean absorbances from dark controls incubated with PS and kept at room temperature for periods of time equal to the irradiation times.

[4] = tested on: S. aureus; test: Photodynamic inactivation (PDI), CFU survival, white light (red light for TBO); format: cell-based, Staphylococcus aureus; details: 1 μM
[5] = tested on: E. coli; test: Photodynamic inactivation (PDI), CFU survival, 405-nm light (Example 8); format: cell-based, Escherichia coli; details: 10-20 μM, 16 J/cm^2 of 405-nm light
Description: as §1, §2, §3, §4

For `C[N+]1(C)Cc2c(c3c4ccc5c6ccc7c8ccc9c%10c%11c%12c(c2c2c3c3c4c5c4c6c7c5c8c9c%11c6c(c%122)c3c4c56)C2C[N+](C)(C)CC%102)C1` (stereo not drawn) [CI2], the “killing of P. aeruginosa” value ([1]; 10-20 μM, 16 J/cm^2 of 405-nm light) was “high levels of killing”, the “effect of a wash on killing of P. aeruginosa” value ([1]; illumination with versus without a wash, 405 nm) was “more killing after a wash” and the “Kow (octanol-water partition constant)” value [2] was 1.28. For the same compound, the LogKow [2] was 0.11, the “toxicity to L929 mammalian cells at fluences used for PDI of pathogens” value ([3]; 10 μM, 10 min, white light up to 50 J/cm^2) was “not killed” and the “toxicity to mammalian cells at high fluences relative to TBO” value ([3]; L929, high fluences) was “considerably less toxic”. The “PDT activity against S. aureus” value ([4]; 10 min, white light up to 50 J/cm^2) was “effectively killed”, the “light sufficient to kill 4-5 logs of S. aureus” value ([4]; with a wash, white light) was 2 J/cm^2 and the “killing of E. coli” value [5] was “high levels of killing”.
